Laboratory results from paper PMC4663167 (Insect biochemistry and molecular biology, 2015).

Target: PhumOR2 (odorant receptor) (Pediculus humanus, UniProt A0ACM8QMA3)
Format: cell-based

SMILES | EC50 [µM]
CC(O)c1ccccc1 (stereo not drawn) [1-phenylethanol] | 1300
Cc1cccc(O)c1C [2,3-dimethylphenol] | 103
CC1CCC(O)CC1 (stereo not drawn) [4-methylcyclohexanol] | 120
